Measurements as given in patent publication US9701651B2, “Methods of treating an overweight or obese subject” (Zafgen, Inc., priority 2008, dated 2017).
“Also recorded” adds a separate entry of the source.

Tested on: DIO mice
Experiment: Weight loss study in diet-induced obese mice (oral administration)
Type: in vivo, C57BL/6NTac mice
Settings: 1.0 mg/kg orally in 10% gelucire in deionised water, once a day for 7 days; mice on 60% fat diet; over the course of the 8 days; compared with vehicle group
Description: A weight loss study was conducted in obese mice. The mice in this study were not genetically obese, but prior to and during the study, obesity was induced by a high-fat diet. Twelve week-old C57BL/6NTac mice, maintained on a 60% fat diet prior to and during the study, were separated into seven groups, eight animals per group. Average body weight of the mice was approximately 47 g at the start of the study.
Each of […] groups was orally administered 1.0 mg/kg of a compound (fumagillin and compounds B. C, D, E, F and G), in 10% gelucire in deionised water. Compounds B-G are as follows:
Each of these six groups was administered a different compound. One group was orally administered fumagillin at 1.0 mg/kg (ZGN-201) in 10% gelucire in deionised water, and one group was administered ([…] in deionised water(vehicle). Mice received administrations once a day for 7 days.
(Data analyzed by ANCOVA with body weight on Day 1 as covariate followed by multiple tests against vehicle group: *p<0.05; **p<0.01, ***p<0.001.)

Compound	effect on body weight (weight loss)
CO[C@@H]1[C@H](OC(=O)N[C@@H](C(=O)NCCN2CCCC2)C(C)C)CC[C@]2(CO2)[C@H]1[C@@]1(C)O[C@@H]1CC=C(C)C [E]	lost weight
CO[C@@H]1[C@H](OC(=O)N[C@@H](C(N)=O)C(C)C)CC[C@]2(CO2)[C@H]1[C@@]1(C)O[C@@H]1CC=C(C)C [B]	lost weight
CO[C@@H]1[C@H](OC(=O)N[C@@H](C(=O)NCCC2CCCN2C)C(C)C)CC[C@]2(CO2)[C@H]1[C@@]1(C)O[C@@H]1CC=C(C)C (some centres unmarked) [D]	lost weight
CO[C@@H]1[C@H](OC(=O)/C=C/C=C/C=C/C=C/C(=O)O)CC[C@]2(CO2)[C@H]1[C@@]1(C)O[C@@H]1CC=C(C)C [fumagillin, reference compound]	lost the most weight
CO[C@@H]1[C@H](OC(=O)NCCC2CCCN2C)CC[C@]2(CO2)[C@H]1[C@@]1(C)O[C@@H]1CC=C(C)C (some centres unmarked) [C]	lost weight; also recorded: losing the most weight of these four groups
